Assay [1] deals with Streptococcus. The assay can be described thus: GAS UMAA2166 growth inhibition – luminescence, BacTiterGlo, counter-screen for streptokinase expression inhibitor project, dose response (AID 1915).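 Note: potency for reduction of bacterial viability or growth.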 The format is functional, organism-based. (The purpose of a counterscreen is to sort out artefacts and off-target activity.)
For assay [2], the target named is T1, Streptokinase A (Streptococcus pyogenes serotype M1, UniProt P10520).
T1 sequence (P10520 whole entry): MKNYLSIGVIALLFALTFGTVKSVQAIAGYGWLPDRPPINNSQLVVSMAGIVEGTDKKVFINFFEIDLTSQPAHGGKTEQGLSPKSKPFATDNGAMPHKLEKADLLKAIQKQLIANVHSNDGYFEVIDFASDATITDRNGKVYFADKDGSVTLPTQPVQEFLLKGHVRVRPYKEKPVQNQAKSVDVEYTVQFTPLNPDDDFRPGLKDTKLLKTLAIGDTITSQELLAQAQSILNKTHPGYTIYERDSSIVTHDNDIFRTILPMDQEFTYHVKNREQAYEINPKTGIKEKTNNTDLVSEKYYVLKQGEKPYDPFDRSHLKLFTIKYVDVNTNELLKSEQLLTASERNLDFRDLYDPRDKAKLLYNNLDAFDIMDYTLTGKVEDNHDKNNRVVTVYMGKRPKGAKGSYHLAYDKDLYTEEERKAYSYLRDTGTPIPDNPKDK
The assay can be described thus: viability-normalized secreted streptokinase activity reduction – plasminogen activation absorbance, OD405, dose response (AID 1914).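 Note: secreted streptokinase activity via plasminogen activation per viability signal from cell pellet.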 The format is functional, Streptococcus pyogenes M1 GAS.

For assay [3], the system named is Streptococcus sp. 'group A'. Description: Streptococcus pyogenes SK(-)GAS viability under kanamycin – luminescence, BacTiterGlo, confirmation, counter-screen for streptokinase expression inhibitor project, dose response (AID 1900). The format is functional, organism-based.
The subject of assay [4] is INS1. The assay can be described thus: INS-1E survival protection against cytokine death – cell-based, luminescence, retest, dose response (AID 449756).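 Note: cell death triggered by IL-1 beta plus TNF-alpha plus IFN-gamma mixture; protective hits raise ATP signal compared with cytokine alone wells.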 The format is functional. The settings on record: Rattus norvegicus.
Assay [5] deals with T2, Corticotropin-releasing factor receptor 2/Corticotropin-releasing factor-binding protein (Homo sapiens, UniProt P24387+Q13324).
T2 sequence (Q13324 whole entry): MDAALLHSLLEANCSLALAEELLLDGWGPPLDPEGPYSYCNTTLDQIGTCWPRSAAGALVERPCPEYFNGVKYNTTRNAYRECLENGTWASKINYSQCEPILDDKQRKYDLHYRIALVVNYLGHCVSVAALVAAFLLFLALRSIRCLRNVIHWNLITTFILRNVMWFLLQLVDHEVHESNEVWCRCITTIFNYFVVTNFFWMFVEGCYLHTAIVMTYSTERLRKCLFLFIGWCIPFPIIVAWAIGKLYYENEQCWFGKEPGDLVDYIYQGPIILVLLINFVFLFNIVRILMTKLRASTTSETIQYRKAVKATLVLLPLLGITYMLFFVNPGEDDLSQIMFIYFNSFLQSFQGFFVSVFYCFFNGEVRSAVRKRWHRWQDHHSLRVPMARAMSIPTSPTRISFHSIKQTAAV
T2 sequence (P24387 whole entry): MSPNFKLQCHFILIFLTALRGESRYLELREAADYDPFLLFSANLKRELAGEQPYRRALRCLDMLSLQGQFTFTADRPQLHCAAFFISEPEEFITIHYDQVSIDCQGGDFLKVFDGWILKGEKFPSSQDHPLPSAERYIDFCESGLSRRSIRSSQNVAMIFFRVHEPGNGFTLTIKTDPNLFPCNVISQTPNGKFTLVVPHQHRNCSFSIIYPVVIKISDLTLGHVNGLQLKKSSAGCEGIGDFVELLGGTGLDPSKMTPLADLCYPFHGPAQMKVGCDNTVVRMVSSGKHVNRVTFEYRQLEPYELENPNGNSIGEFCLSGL
The assay can be described thus: activators of CRF receptor 2 with binding protein – uHTS hits, confirmation (AID 602473). The format is functional. The settings on record: read-out: EC50_Mean.

Assay [6] concerns the target T3, Protein RecA (Mycobacterium tuberculosis, UniProt P9WHJ3).
T3 sequence (P9WHJ3 whole entry): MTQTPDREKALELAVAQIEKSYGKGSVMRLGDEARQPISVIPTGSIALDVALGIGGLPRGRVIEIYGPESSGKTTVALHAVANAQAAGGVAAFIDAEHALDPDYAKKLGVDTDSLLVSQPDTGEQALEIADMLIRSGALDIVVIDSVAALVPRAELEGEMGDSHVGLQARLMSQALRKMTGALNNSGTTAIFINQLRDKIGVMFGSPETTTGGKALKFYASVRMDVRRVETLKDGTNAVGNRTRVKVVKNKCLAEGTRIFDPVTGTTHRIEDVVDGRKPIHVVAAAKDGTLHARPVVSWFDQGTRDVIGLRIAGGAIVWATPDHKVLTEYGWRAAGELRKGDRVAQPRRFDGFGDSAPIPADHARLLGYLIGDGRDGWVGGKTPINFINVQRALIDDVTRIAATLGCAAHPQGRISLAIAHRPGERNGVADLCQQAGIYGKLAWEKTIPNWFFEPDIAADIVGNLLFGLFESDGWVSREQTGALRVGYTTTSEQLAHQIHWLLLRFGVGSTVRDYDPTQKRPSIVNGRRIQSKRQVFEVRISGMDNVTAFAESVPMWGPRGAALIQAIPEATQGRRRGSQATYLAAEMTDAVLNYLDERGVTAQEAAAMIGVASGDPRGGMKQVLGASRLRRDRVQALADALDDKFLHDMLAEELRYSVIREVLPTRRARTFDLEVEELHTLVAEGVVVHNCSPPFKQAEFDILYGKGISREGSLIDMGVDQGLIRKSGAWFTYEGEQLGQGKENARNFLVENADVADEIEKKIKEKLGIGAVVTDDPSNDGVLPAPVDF
The assay can be described thus: Fluorescence Cell-Free Homogeneous Dose Retest to Identify Inhibitors of RecA-Intein Splicing Activity. [Related pubchem assays (depositor defined):AID2097, AID2223, AID489010, AID492950]. The format is functional.

Assay [7] has as its target Cytochrome P450 3A4 (Homo sapiens, UniProt P08684).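 Note: CYP3A4 tested as one member of a cytochrome P450 panel screen.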

The source made the active and inactive calls. Cut-off read from the data, not from the text of the source, for most assays here: actives have a measured EC50 and inactives only a lower limit.

Cytochrome P450 3A4, sequence (P08684 whole entry): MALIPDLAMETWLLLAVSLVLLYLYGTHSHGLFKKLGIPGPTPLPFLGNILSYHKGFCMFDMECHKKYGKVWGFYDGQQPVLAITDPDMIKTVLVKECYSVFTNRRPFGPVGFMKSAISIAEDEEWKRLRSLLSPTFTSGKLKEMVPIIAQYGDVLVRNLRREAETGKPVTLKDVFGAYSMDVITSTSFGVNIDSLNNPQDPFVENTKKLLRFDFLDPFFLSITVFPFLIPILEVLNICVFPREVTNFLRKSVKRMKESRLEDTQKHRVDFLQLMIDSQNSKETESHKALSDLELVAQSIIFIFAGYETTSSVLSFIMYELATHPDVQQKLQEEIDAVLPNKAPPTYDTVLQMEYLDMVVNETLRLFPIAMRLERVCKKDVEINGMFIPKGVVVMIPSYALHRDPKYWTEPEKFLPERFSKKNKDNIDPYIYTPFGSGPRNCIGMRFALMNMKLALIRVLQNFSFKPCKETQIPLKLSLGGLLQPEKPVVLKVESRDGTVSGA

Take `O=C(CSC(=S)N1CCCCC1)Nc1nc(-c2ccccc2)c(-c2ccccc2)o1`: the EC50 in assay [1] was > 150 µM (not active); in assay [2], > 150 µM (not active); in assay [3], 1.51 µM (active).

Broadly, the AC50 is the midpoint of the concentration-response curve, whichever way the signal moves. With `C/C(=N/NC(=O)CN(c1ccccc1)S(=O)(=O)c1ccccc1)c1ccccc1O`, the AC50 in assay [4] is 2.01 µM (active).

As to `Cc1ccc2c(c1)C(=O)CC1(CCC(C(C)(C)C)CC1)O2` (configuration not stated), the EC50 in assay [1] was 14.2 µM (active); in assay [2], 12.6 µM (active); in assay [3] it was 9.31 µM (active).

As to `CCN=C(S)N(CCc1ccc(S(N)(=O)=O)cc1)C1CC(=O)N(c2ccccc2)C1=O` (configuration not stated), in assay [5], the EC50 is 18.5 µM (active).

For `CC1(c2ccc(OC(F)F)cc2)NC(=O)N(CC(=O)Nc2ccc3c(c2)OCO3)C1=O` (configuration not stated), the EC50 in assay [5] is 5.24 µM (active).

For `COc1ccc(-c2coc3c(C)c4oc(=O)c(CCC(=O)O)c(C)c4cc23)cc1`, the EC50 in assay [1] was 15.4 µM (active); in assay [2], > 150 µM (not active); in assay [3], 3.74 µM (active).

With `Cc1ccc(N(Cc2cc(=O)[nH]c3ccccc23)C(=O)CCl)cc1`, the EC50 in assay [6] was > 380 µM (inconclusive).

Turning to `COc1ccc(C(=O)Cn2cnc3ccccc3c2=O)c(OC)c1`, the EC50 in assay [5] was > 53 µM (inactive).

Regarding `CC(=O)Nc1ccc(/C=N/N2C(=O)NC(C)(c3ccc(OC(F)F)cc3)C2=O)cc1` (configuration not stated), in assay [5], the EC50 was 1.37 µM (active).

Take `CCCn1c(NC(=O)C23CC4CC(CC(O)(C4)C2)C3)nc2ccccc21`: the EC50 in assay [1] and in assay [2] was > 150 µM (not active) throughout.

As for `COc1ccc(-[n+]2c(-c3ccc(Cl)cc3)cn3c2CCCCC3)cc1`, the AC50 in assay [4] was 1.44 µM (active).

In the case of `COc1ccc(CN(C2CCCCC2C)S(=O)(=O)c2ccc(S(=O)(=O)N(C)C)cc2)cc1OC` (configuration not stated), the EC50 in assay [5] is 5.42 µM (active).

Consider `Cc1ccc(C(=O)Nc2nnc(S(=O)(=O)N3CCN(c4ccc(F)cc4)CC3)s2)cc1`, for which the EC50 in assay [1] was 109 µM (active); in assay [2], > 150 µM (not active).

As to `O=[N+]([O-])c1ccc(N2CCN(CCOc3nonc3-c3ccccc3)CC2)c(Cl)c1`, the AC50 is 4.8 µM (active) in assay [4] and 14.1 µM (inconclusive) in assay [7].

Regarding `C=C[C@H](CC(C)C)N(Cc1ccccc1)S(=O)(=O)N(Cc1ccc(OC)cc1)[C@H](C=C)CC(C)C`, the AC50 in assay [4] is 5.78 µM (active).

In the case of `COCCCNC(=S)N/N=C/c1cccc(OC)c1O`, in assay [4], the AC50 was 2.44 µM (active).

Consider `CCCCCCc1ccc(N2C[C@H](Cc3ccccc3)[C@@H](CC(=O)NCc3ccc(OC)cc3)C2=O)cc1`, for which, in assay [4], the AC50 is 7.78 µM (active).

In the case of `CCO/C=C1/C(=O)N(C)C(=O)c2cc(OC)ccc21`, the EC50 in assay [6] is > 380 µM (inactive).

In the case of `N#Cc1ccc(-c2csc(NNC(=O)c3ccccc3)n2)cc1`, the AC50 in assay [4] is > 260 µM (inactive).

On to `CCOC(=O)c1ccc(CNC(=O)Cn2nnc(-c3ccccc3)n2)o1`, for which the EC50 in assay [5] is > 53 µM (inactive).

In the case of `COc1ccc(CNS(=O)(=O)NCc2ccccc2)cc1OC`, the EC50 in assay [5] is > 53 µM (inactive).

For the compound `COc1ccc(Br)cc1CN(C)CC(=O)NCc1ccc(F)cc1`, the AC50 in assay [4] is 114 µM (active).

Consider `O=C(c1ccc(S(=O)(=O)Nc2ccccc2)cc1)N1CCCC(C(F)(F)F)C1` (configuration not stated), for which the EC50 in assay [5] was 10.5 µM (active).

`Cc1cccc(CNc2ccc(S(=O)(=O)N3CCCCC3)cc2)c1`: the AC50 in assay [4] was 27.2 µM (active).

As for `Cc1ccc(S(=O)(=O)N2CCN(c3ncnc4scc(-c5ccccc5)c34)CC2)cc1`, the EC50 in assay [5] is 2.65 µM (active).

On to `Cc1nn(C)c(C(=O)N/N=C/c2cccc(Oc3ccccc3)c2)c1Br`, for which, in assay [5], the EC50 was > 53 µM (inactive).

As for `COc1ccc(NC(=N)SCc2ccccn2)cc1`, in assay [5], the EC50 is 15.6 µM (active).

For the compound `CCCn1c(=O)c(C(=O)NNC(=O)c2ccccc2Cl)c(O)c2ccccc21`, the EC50 in assay [5] is 5.81 µM (active).

Values taken from ChEMBL document CHEMBL1201862, “PubChem BioAssay data set” (2004).
